Source: patent US8329645B2, “Polymyxin derivatives and uses thereof” (priority 2008, dated 2012)

Columns and labels:
[1] = test system: Ps. aeruginosa ATCC 27853; assay: Sensitization to rifampin: growth inhibition around wells on LB plates containing rifampin; format: cell-based, Pseudomonas aeruginosa; conditions: 4 μg
E. coli IH3080 [2] = assay: Growth inhibition around wells on LB agar plates; format: cell-based, Escherichia coli
Summary of the method: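 Growth inhibition of encapsulated E. coli IH3080 (K1:O018) was assessed on LB agar plates. A suspension of about 10^8 cells/ml in 0.9% NaCl, made from an overnight LB agar culture, was spread across the plate surface and the excess removed. After drying, 2 mm wells were drilled, with 0.9% NaCl as control. Following 18 h at 37° C., inhibition zone diameters around wells were converted to areas in square mm.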

[3] = test system: Pseudomonas aeruginosa ATCC 27853; assay: Growth inhibition around wells on LB agar plates; format: cell-based; conditions: Ps. aeruginosa ATCC 27853
Summary of the method: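 Activity against Pseudomonas aeruginosa ATCC 27853 was assessed by agar well diffusion on LB plates. A suspension of about 10^8 cells/ml in 0.9% NaCl was spread over the agar and the excess removed. Once the surface had dried, 2 mm wells were drilled and filled with peptide dissolved in 0.9% NaCl. Plates were incubated 18 h at 37° C, and inhibition zone diameters were converted to areas in square mm.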

E. coli IH3080 [4] = assay: Sensitization to rifampin: growth inhibition around wells on LB plates containing rifampin; format: cell-based, Escherichia coli; conditions: 4 μg of compound
E. coli = conditions: Sakura et al. (2004); cited from earlier work

## octanoyl polymyxin B heptapeptide [Octanoyl PMBH, reference compound]
[1]; rifampin 0 μg/ml
  growth inhibition around a well in the presence of rifampin: 0 square millimeters
[1]; rifampin 0.1 μg/ml
  growth inhibition around a well in the presence of rifampin: 13 square millimeters
[1]; rifampin 0.3 μg/ml
  growth inhibition around a well in the presence of rifampin: 13 square millimeters
E. coli IH3080 [2]; 4 μg of compound per well
  growth inhibition around a well: 0 square millimeters
E. coli IH3080 [2]; 10 μg of compound per well
  growth inhibition around a well: 0 square millimeters
[3]; 4 μg
  growth inhibition around a well: 0 square millimeters
[3]; 10 μg
  growth inhibition around a well: 13 square millimeters
E. coli IH3080 [4]; rifampin 0 μg/ml
  growth inhibition around a well in the presence of rifampin: 0 square millimeters
E. coli IH3080 [4]; rifampin 0.1 μg/ml
  growth inhibition around a well in the presence of rifampin: 0 square millimeters
E. coli IH3080 [4]; rifampin 1.0 μg/ml
  growth inhibition around a well in the presence of rifampin: 38 square millimeters
E. coli
  concentration needed to inhibit the growth of bacteria: 128 µg/mL
